Assay results taken from patent US20140154735A1, “TUMOUR CELL AND TISSUE CULTURE” (CAPSANT NEUROTECHNOLOGIES LTD., priority 2011, published 2014).
Each block holds one molecule with its values, some of them ahead of it.

How the values were obtained:
LN-18 cells [1] = experiment: 2D monolayer culture of LN-18-GFP tumour cells alone, fluorescence growth readout; type: cell-based, human; settings: for IC50: Homo sapiens, LN-18, 2D culture, growth inhibition
Experimental: (§1) Human glioblastoma tumour cell lines, LN-18 (ATCC #CRL2610) were cultured and were transfected with either green fluorescent protein (GFP) expressing plasmids or red fluorescent protein (RFP) expressing plasmids. Cells were cultured and plated onto 6 well plates, at 1×10^5 cells per well, grown overnight and checked to see ˜75% confluence. The cells were transfected with pEGFP-N3 (BD Biosciences cat no #6080-1) using Gene Juice (Novagen cat no #70967-EA) as per manufacturer's protocols. 24 hours after transfection, the cells were selected with Geneticin (GIBCO cat no #10131-019), a population of selected cells were used in the experiments. A population of selected cells were cultured over prolonged periods of time with occasional selection to maintain a population of transfected cells. The expression of fluorescent proteins by the tumour cells allows monitoring of the tumour cells for proliferation and morphological changes. The transfected tumour cells (LN-18) were treated with trypsin/EDTA (sigma#T4299) to remove them from the flask, resuspended in culture media, The viable cells were counted using trypan blue exclusion The suspension was centrifuged at 1000 rpm/3 minutes and the resultant cell pellet resuspended to 50,000 cells/μl.
(§2) For the monolayer cultures of tumour cells alone (2D) LN-18_GFP cells were plated into 24 well plates at a concentration of 10^4 cells per well and after 2 hours treated with the same concentrations of TMZ as the organotypic co-cultures. Control organotypic co-cultures and 2D cultures were also monitored to compare normal growth of the tumour cells with that after addition of the TMZ. For analysis of fluorescence, images were taken on a Leica DM1L microscope using Leica application suite software. The images collected were analyzed using the BD IPLAB imaging software and the data analysed using Graphpad Prism5 software. The error bars are the standard error of the mean (SEM). 24 images were used for each data point.

LN-18 cells [2] = experiment: 3D organotypic co-culture of LN-18-GFP tumour cells in rat brain cell matrix, treated at seeding; type: cell-based, human
Experimental: as §1
The organotypic cultures were produced by preparing dissociated cells from isolated rat cortex. P0 Wistar rats were sacrificed and the brains removed. The cortices were dissected into a Petri dish and chopped into small pieces and put into cold EBSS (GIBCO cat no #24010). The tissue pieces were then triturated very gently. The resultant cell suspension was filtered through a 100 μm mesh filter fitting into a 50 ml falcon tube. The suspension was centrifuged at 1000 rpm/3 minutes. The viable cells were counted using Trypan blue exclusion and the cell pellet resuspended to 50,000 cells/μl.
The transfected tumour cells and the rat primary cells prepared as explained in Examples 1 and 2 were mixed together to form a suspension of cells at 50,000 cells/μl.
5 μL of this mixed cell suspension was added to the top of a 0.4 micron Millipore culture insert (Millipore cat no # PICM0350) placed in lml cortical media (10% Hams F12, 20% FCS, 5% horse serum, 10 mM Hepes, 2 mM glutamine in DMEM) in a 6 well plate (NUNC). The plate was then incubated at 37° C. with 5% CO2 (FIG. 1A). During the first hours of this incubation the cells compact to form a denser culture by the removal of the liquid from the 5 μl cell suspension through capillary action via the semi-permeable membrane support (FIG. 1A).
Using these optimisation experiments the cells were mixed in the proportions of 95% rat brain cells and 5% LN-18 tumour cells both resuspended at 50,000 cells per μl.
(§3) Organotypic co-cultures were prepared as previously described. 2 hours after preparation, TMZ was added into the culture medium at various concentrations—see FIG. 6. The cultures are incubated in the culture medium+TMZ for up to 14 days with the compound being renewed as the media was changed. This allowed for monitoring of the effect of the TMZ over time.
as §2

U87 [3] = experiment: 2D culture of U87 glioblastoma cells, growth inhibition; type: cell-based; settings: Homo sapiens, U-87 MG; U87, 2D culture; read-out: IC50 TMZ 2D
GL-15 [4] = experiment: 2D culture of GL-15 glioblastoma cells, growth inhibition; type: cell-based; settings: GL-15, 2D culture
Experimental: as §2
(§4) Similarly to what has been observed with LN-18 cells, efficacy of Temozolomide was increased from 2.5 to 12 fold in brain-co-cultures. Thus, the co-cultures of the invention reflect the clinical situation more closely than 2D cultures for various glioblastoma cell lines.

A172 [5] = experiment: 3D co-culture of A172 glioblastoma cells with brain cell matrix, growth inhibition; type: cell-based; settings: Homo sapiens, A172, 3D co-culture with brain cell matrix
Experimental: (§5) Each of these cell lines was eGFP-labeled and mixed with rat brain cells to form 3D organotypic co-cultures. As indicated by the eGFP signal, all brain-derived tumour cell lines grew and formed clusters of tumour cells within the co-cultures (FIGS. 3B, C and D) in a very similar way as LN18 cells.
as §3, §4

GL-15 [6] = experiment: 3D co-culture of GL-15 glioblastoma cells with brain cell matrix, growth inhibition; type: cell-based; settings: GL-15, 3D co-culture with brain cell matrix
Experimental: as §5, §3, §4

U87 [7] = experiment: 3D co-culture of U87 glioblastoma cells with brain cell matrix, growth inhibition; type: cell-based; settings: Homo sapiens, U-87 MG, U87, 3D co-culture with brain cell matrix
Experimental: as §5, §3, §4

A172 [8] = experiment: 2D culture of A172 glioblastoma cells, growth inhibition; type: cell-based; settings: Homo sapiens, A172, 2D culture
Experimental: as §2, §4

[9] = test system: established glioblastoma tumour cell clusters in GBM/brain co-cultures; experiment: Tumour regression in established GBM/brain co-cultures, treatment started three days after seeding; type: cell-based
Source text: Chemotherapies are given to patients with established tumours and are poorly effective.
Thus, also in terms of tumour regression, the properties of the co-cultures of the invention are representative of the clinical situation.

LN18-eGFP clusters = experiment: 5-ALA staining of GBM(LN18-eGFP)/brain co-cultures; type: cell-based, human; settings: 100 μg/ml, 24 hours
Source text: 5-aminolevulinic acid (5-ALA) can be used to visualize tumourous tissue during neurosurgical procedures. The intraoperative use of this guiding method may reduce the tumour residual volume and prolong progression-free survival in patients suffering from brain tumours. GBM(LN18-eGFP)/brain co-cultures as prepared in Example 4 were stained with 5-ALA to see whether, as in human tumours, 5-ALA could specifically stain the tumour cells.
Aminolevulinic acid hydrochloride (ALA) (Sigma product number A3785) was solubilised in water to 10 mg/ml. For incubation with the cultures, it was diluted in the medium in the well to give a final concentration of 100 μg/ml and incubated with the cultures for 24 hours. The cultures were then examined microscopically using the CARV confocal system described for immunohistological analysis.

Structure (SMILES): Nc1ccn([C@@H]2O[C@H](CO)[C@@H](O)[C@@H]2O)c(=O)n1 [Ara-C, Cytosine arabinoside]
concentration showing growth inhibition (anti-proliferative activity) (LN-18 cells [1]; 2D cultures): 100 nM
dose needed in 3D co-cultures relative to dose necessary in 2D cultures (LN-18 cells [2]; 3D versus 2D): ten times
concentration required to reduce tumour cell proliferation (LN-18 cells [2]; GBM/Brain co-cultures (3D)): 1 µM
effect on GBM cells (LN-18 cells [2]; GBM/Brain co-cultures (3D), 10 μM): effectively killed

IC50 (U87 [3]): ~12000 nM
IC50 (GL-15 [4]; read-out: IC50 TMZ 2D): > 50000 nM
IC50 (LN-18 cells [1]; read-out: IC50 TMZ 2D): > 10000 nM
IC50 (A172 [5]; A 172, read-out: IC50 TMZ 3D): ~5000 nM
IC50 (GL-15 [6]; read-out: IC50 TMZ 3D): ~20000 nM
IC50 (U87 [7]; read-out: IC50 TMZ 3D): ~1000 nM
IC50 (A172 [8]; A 172, read-out: IC50 TMZ 2D): ~25000 nM
Structure (SMILES): Cn1nnc2c(C(N)=O)ncn2c1=O [TMZ, Temozolomide]
IC50 (LN-18 cells [2]; Homo sapiens, LN-18, LN-18, 3D co-culture with rat brain cells, growth inhibition, read-out: IC50 TMZ 3D): < 5000 nM
IC50 (LN-18 cells [2]; LN-18, 3D co-culture with rat brain cells, growth inhibition, read-out: IC50 TMZ 3D): ~4000 nM

IC50 (GL-15 [4]; read-out: IC50 Taxol 2D): ~4 nM
IC50 (LN-18 cells [1]; read-out: IC50 Taxol 2D): ~7 nM
IC50 (A172 [5]; A 172, read-out: IC50 Taxol 3D): ~50 nM
IC50 (GL-15 [6]; read-out: IC50 Taxol 3D): 100 nM
IC50 (U87 [7]; read-out: IC50 Taxol 3D): ~60 nM
IC50 (A172 [8]; A 172, read-out: IC50 Taxol 2D): ~7 nM
Structure (SMILES): CC(=O)O[C@H]1C(=O)[C@@]2(C)[C@H]([C@H](OC(=O)c3ccccc3)[C@]3(O)C[C@H](OC(=O)[C@H](O)[C@@H](NC(=O)c4ccccc4)c4ccccc4)C(C)=C1C3(C)C)[C@]1(OC(C)=O)CO[C@@H]1C[C@@H]2O [Taxol, Paclitaxel]
effect on tumour cell number (LN-18 cells [1]; 2D, Taxol 20 nM): reduction in cell number to almost zero
effect on tumour cell number (average % fluorescence) (LN-18 cells [1]; 2D, taxol 5 nM): small but significant reduction in cell number
effect on tumour cell number (average % fluorescence) (LN-18 cells [1]; 2D, taxol 20 and 50 nM): no increase in cell number
effect on fluorescence intensity of established tumour cell clusters ([9]; taxol 25 nM): no effect
effect on fluorescence intensity of established tumour cell clusters ([9]; taxol 100 nM and 50 nM): marginal effects
effect on tumour cell growth (LN-18 cells [2]; 3D, taxol 25 nM, treatment started at seeding): cell growth was stopped
effect on cell growth versus control cultures (average % fluorescence) (LN-18 cells [2]; 3D, taxol 25, 50 and 100 nM): significant reduction in cell growth
concentration required to achieve tumour clusters shrinkage (LN-18 cells [2]; 3D, treatment started at seeding): 100 nM
IC50 (LN-18 cells [2]; Homo sapiens, LN-18, read-out: IC50 Taxol 3D, LN-18, 3D co-culture with rat brain cells, growth inhibition): ~25 nM

Structure (SMILES): NCC(=O)CCC(=O)O [5-ALA, 5-aminolevulinic acid]
staining of tumour cell clusters (LN18-eGFP clusters; clusters of more than about 100 μm in diameter): strong specific 5-ALA staining
staining of tumour cell clusters (LN18-eGFP clusters; clusters smaller than about 100 μm in diameter): stained more weakly
